# Measurements reported in patent US20020049205A1, “Pyrazole antimicrobial agents” (priority 2000, published 2002).
# What was measured:
# [1] = target: T1, Sigma^70 saturated E. coli RNA Polymerase (Escherichia coli, UniProt P0A7Z4+P0A800+P0A8T7+P0A8V2); experiment: IC50 assay, inhibition of RNA polymerase; type: biochemical; conditions: Table 2, compounds of Formula 13
# T1 construct: purchased Epicenter
# Protocol: One common assay involves evaluation of the compounds as RNA polymerase inhibitors. In this assay, buffer (250 mM KCl, 5% glycerol, 10 mM MgCl2, 0.1 mg/ml BSA) is combined with 6 mM β-M.E., PT5 DNA template, and 1.3 μg/rxn Sigma^70 saturated E. coli RNA Polymerase (Epicenter). The compound is then added in a manner not to exceed 5% DMSO. Nucleotide triphosphates are then added at the following concentration: 250 μM ATP, CTP and UTP with 100 μM cold CTP and 50 μM α-^32P CTP. The mixture is incubated for 10 min at about 37° C. A [2×] loading buffer is added and the mixture is then run on a 6% urea denaturing PAGE until bromophenol blue reaches the edge of plate. The gel is soaked (about 20 minutes in 10% MeOH and 10% acetic acid, to remove urea), then dried (about 55 minutes at about 85° C. (BioRad Gel Drier)) and exposed to a Phospho Imaging Plate for 1 hour. The plate is then read on a Fujix Bas1000 Imaging System and quantified using MacBas v2.0 software. An IC50 (in μM) can be calculated as the concentration of a drug which reduces the enzyme activity to 50% of the control.
# In this assay, buffer (250 mM KCl, 5% Glycerol, 10 mM MgCl2, 0.1 mg/ml bovine serum albumin (BSA)) is combined with 6 mM β-mercaptoethanol, PT5 DNA template, and 1.3 μg/rxn Sigma^70 saturated E. coli RNA Polymerase (obtained from Epicenter). The compound is then added in a manner not to exceed 5% DMSO. Nucleotide triphosphates are then added at the following concentration: 250 μM ATP, CTP and UTP with 100 μM cold CTP and 50 μM α-32P CTP. The mixture is incubated for 10 min at about 37° C. A [2×] loading buffer is added and the mixture is then run on a 6% urea denaturing PAGE until bromophenol blue reaches the edge of plate. The gel is soaked (about 20 minutes in 10% MeOH and 10% acetic acid, to remove urea), then dried (about 55 minutes at about 85° C. (BioRad Gel Drier)) and exposed to a Phospho Imaging Plate for 1 hour. The plate is then read on a Fujix Bas1000 Imaging System and quantified using MacBas v2.0 software. An IC50 (in μM) can be calculated as the concentration of a compound of the invention that reduces the enzyme activity to 50% of the control. For the sake of clarity, the above-described assay is used to determine the IC50 values referenced in the claims. However, the skilled artisan will recognize that other methods can be used to determine an IC50 value.
# [2] = tested on: B. su; experiment: Minimum Inhibitory Concentration assay, B. su; type: cell-based; conditions: LB medium, 16 hours, 37° C.; Table 2
# Protocol: (§1) For Minimum Inhibitory Concentration (MIC) determinations for selected bacteria, log phase growing bacteria are re-suspended at 1×10^5 bacteria per mL in LB medium. The compound is added and two-fold dilutions are made. The final volume in the 96-well plate is about 100 μL. The plate is incubated at 37° C. in the dark with shaking. After 16 hours of incubation, growth is monitored by reading A600 or by visual inspection. MIC is defined as the minimum concentration of drug resulting in inhibition of visible growth of bacterial under the conditions described (above) in National Committee for Clinical Laboratory Standards 1993. Methods for dilution antimicrobial susceptibility tests for bacteria that grow aerobically. Approved standard M7-A3; National Committee for Clinical Laboratory Standards: Villanova, Pa.
# as §1, with “MIC” for “Minimum Inhibitory Concentration (MIC)”
# [3] = tested on: S. au; experiment: Minimum Inhibitory Concentration assay, S. au; type: cell-based; conditions: LB medium, 16 hours, 37° C.; Table 2
# Protocol: as §1
# as §1, with “MIC” for “Minimum Inhibitory Concentration (MIC)”
# [4] = tested on: E.c(tolC); experiment: Minimum Inhibitory Concentration assay, E.c(tolC); type: cell-based; conditions: 16 h, read-out: MIC (μM) E.c(tolC)
# Protocol: as §1
# as §1, with “MIC” for “Minimum Inhibitory Concentration (MIC)”
# T1 sequence (P0A8V2 whole entry): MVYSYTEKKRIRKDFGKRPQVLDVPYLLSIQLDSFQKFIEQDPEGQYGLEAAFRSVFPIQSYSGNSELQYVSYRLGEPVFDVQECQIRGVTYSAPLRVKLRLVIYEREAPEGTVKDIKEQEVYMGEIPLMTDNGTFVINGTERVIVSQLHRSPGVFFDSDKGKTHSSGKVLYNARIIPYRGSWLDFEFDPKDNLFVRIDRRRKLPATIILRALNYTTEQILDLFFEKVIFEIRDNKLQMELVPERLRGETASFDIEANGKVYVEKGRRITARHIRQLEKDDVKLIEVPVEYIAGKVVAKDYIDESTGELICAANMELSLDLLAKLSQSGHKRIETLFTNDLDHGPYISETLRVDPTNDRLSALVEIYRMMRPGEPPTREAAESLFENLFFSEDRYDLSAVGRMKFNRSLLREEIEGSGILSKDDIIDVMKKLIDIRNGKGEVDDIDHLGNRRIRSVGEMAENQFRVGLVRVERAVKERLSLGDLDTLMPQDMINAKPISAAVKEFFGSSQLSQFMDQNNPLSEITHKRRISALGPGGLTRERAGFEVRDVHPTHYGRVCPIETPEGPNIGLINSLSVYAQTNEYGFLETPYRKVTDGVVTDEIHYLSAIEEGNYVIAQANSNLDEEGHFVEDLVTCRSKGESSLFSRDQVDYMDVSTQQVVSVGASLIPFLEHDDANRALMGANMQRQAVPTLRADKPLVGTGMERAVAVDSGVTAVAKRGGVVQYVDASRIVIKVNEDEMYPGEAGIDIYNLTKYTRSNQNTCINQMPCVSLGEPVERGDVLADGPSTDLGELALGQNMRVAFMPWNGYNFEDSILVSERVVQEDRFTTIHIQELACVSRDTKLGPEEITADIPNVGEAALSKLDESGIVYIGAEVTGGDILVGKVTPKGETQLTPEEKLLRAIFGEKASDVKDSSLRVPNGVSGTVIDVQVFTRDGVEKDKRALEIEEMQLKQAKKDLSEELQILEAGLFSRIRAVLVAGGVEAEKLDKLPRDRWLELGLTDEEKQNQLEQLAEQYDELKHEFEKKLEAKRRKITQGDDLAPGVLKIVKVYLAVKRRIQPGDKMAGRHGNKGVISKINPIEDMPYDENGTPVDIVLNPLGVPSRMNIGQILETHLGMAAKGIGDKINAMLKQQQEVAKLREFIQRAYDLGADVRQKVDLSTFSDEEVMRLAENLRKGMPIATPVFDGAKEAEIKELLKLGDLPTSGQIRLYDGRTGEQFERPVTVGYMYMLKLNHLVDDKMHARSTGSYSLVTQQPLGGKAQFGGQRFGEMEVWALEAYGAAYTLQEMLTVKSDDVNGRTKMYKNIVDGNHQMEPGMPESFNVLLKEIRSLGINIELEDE
# T1 sequence (P0A8T7 whole entry): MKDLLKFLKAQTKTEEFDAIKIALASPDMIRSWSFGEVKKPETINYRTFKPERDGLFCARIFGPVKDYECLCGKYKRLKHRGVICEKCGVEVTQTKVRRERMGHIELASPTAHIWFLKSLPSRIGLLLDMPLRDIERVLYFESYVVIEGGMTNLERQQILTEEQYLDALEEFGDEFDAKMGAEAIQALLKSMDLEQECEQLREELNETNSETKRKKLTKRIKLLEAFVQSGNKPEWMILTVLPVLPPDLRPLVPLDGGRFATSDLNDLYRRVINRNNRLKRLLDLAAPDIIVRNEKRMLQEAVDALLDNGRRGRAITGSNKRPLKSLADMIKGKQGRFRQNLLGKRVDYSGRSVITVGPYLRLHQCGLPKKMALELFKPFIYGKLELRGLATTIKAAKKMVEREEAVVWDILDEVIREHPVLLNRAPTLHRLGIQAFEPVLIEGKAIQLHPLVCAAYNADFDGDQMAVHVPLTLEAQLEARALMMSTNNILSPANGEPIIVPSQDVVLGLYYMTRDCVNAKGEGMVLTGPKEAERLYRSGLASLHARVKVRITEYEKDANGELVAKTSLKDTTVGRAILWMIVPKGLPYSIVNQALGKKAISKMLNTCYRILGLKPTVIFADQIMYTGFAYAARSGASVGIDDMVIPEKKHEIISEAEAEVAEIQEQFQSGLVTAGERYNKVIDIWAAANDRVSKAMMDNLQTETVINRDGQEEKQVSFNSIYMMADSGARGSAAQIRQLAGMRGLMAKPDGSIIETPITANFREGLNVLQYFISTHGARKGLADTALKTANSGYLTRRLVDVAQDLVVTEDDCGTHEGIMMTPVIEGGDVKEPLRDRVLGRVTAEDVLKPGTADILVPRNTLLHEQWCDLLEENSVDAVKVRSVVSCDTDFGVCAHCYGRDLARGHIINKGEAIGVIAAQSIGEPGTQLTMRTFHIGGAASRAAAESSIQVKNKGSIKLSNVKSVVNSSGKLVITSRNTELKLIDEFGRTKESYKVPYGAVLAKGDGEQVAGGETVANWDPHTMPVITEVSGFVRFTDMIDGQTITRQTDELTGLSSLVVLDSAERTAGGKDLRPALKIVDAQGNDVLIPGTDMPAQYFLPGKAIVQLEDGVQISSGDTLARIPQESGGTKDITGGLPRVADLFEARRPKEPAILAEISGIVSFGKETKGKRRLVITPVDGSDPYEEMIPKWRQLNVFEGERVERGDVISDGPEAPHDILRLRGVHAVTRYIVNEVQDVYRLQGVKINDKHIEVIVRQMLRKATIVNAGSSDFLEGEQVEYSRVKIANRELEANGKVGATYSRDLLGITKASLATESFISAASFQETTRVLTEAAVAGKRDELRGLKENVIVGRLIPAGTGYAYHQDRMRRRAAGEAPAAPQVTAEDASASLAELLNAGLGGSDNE
# T1 sequence (P0A7Z4 whole entry): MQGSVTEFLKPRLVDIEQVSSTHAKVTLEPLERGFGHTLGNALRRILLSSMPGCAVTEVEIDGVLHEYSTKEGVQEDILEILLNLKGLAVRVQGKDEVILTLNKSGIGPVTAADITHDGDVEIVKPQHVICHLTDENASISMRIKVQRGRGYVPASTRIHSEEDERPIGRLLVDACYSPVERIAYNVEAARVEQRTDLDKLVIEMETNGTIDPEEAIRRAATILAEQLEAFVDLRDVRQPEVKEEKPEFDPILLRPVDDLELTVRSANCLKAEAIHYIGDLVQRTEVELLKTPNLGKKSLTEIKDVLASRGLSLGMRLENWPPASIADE
# T1 sequence (P0A800 whole entry): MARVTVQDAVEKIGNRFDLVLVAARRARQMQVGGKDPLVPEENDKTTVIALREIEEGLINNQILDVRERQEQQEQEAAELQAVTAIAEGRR
compound,measurement,setting,value
"O=c1[nH][nH]c(-c2ccccc2)c1-c1cccc(C(F)(F)F)c1 [Example 16, 5-phenyl-4-(3-trifluoromethylphenyl)-1,2-dihydropyrazol-3-one]",IC50,[1],> 500 µM
same,MIC,[2],< 500 µM
same,MIC,[3],< 500 µM
same,MIC,[4],< 500 µM
